Laboratory results as given in ChEMBL document CHEMBL3407472, “Multi-parameter optimization of aza-follow-ups to BI 207524, a thumb pocket 1 HCV NS5B polymerase inhibitor. Part 2: Impact of lipophilicity on promiscuity and in vivo toxicity” (Bioorg Med Chem Lett, 2015).

test system: not listed separately; assay: Lipophilicity, log D of the compound at pH 7.4; assay type: physicochemical; settings: buffer

Structure (SMILES) | logD
COc1nc(NC(=O)C(C)(C)NC(=O)c2ccc3c(C4CCCC4)c(-c4ccc(Cl)cn4)n(C)c3c2)ccc1/C=C/C(=O)O | 3.9
COc1nc(NC(=O)C(C)(C)NC(=O)c2ccc3c(C4CCCC4)c(-c4cnccn4)n(C)c3c2)ccc1/C=C/C(=O)O | 2.4
COc1nc(NC(=O)C(C)(C)NC(=O)c2ccc3c(C4CCCC4)c(-c4ncc(Br)cn4)n(C)c3c2)ccc1/C=C/C(=O)O | 3.2
COc1nc(NC(=O)C(C)(C)NC(=O)c2ccc3c(C4CCCC4)c(-c4ncc(Br)cn4)n(C)c3c2)cnc1/C=C/C(=O)O | 2.6

test system: Hepatitis C virus; assay: Antiviral activity against Hepatitis C virus genotype 1b infected in human Huh cells assessed as inhibition of viral replication by RT-PCR-based replicon assay; assay type: functional, cell-based, Hepacivirus hominis; settings: not given

Structure (SMILES) | EC50 [nM]
CCOc1nc(NC(=O)C2(NC(=O)c3ccc4c(C5CCCC5)c(-c5ccc(Cl)cn5)n(C)c4c3)CCC2)cnc1/C=C/C(=O)O | 53
CCOc1nc(NC(=O)C2(NC(=O)c3ccc4c(C5CCCC5)c(-c5cncnc5)n(C)c4c3)CCC2)cnc1/C=C/C(=O)O | 89
CCOc1nc(NC(=O)C(C)(C)NC(=O)c2ccc3c(C4CCCC4)c(-c4ccc(F)cn4)n(C)c3c2)cnc1/C=C/C(=O)O | 18
CCOc1nc(NC(=O)C2(NC(=O)c3ccc4c(C5CCCC5)c(-c5ccccn5)n(C)c4c3)CCCC2)ccc1/C=C/C(=O)O | 4
COc1nc(NC(=O)C2(NC(=O)c3ccc4c(C5CCCC5)c(-c5cncnc5)n(C)c4c3)CCC2)ccc1/C=C/C(=O)O | 50
COc1nc(NC(=O)C2(NC(=O)c3ccc4c(C5CCCC5)c(-c5ncc(Cl)cn5)n(C)c4c3)CCC2)cnc1/C=C/C(=O)O | 32
COc1nc(NC(=O)C2(NC(=O)c3ccc4c(C5CCCC5)c(-c5ccccn5)n(C)c4c3)CCC2)cnc1/C=C/C(=O)O | 43
COc1nc(NC(=O)C2(NC(=O)c3ccc4c(C5CCCC5)c(-c5ccc(F)cn5)n(C)c4c3)CCC2)cnc1/C=C/C(=O)O | 37
COc1nc(NC(=O)C2(NC(=O)c3ccc4c(C5CCCC5)c(-c5ccc(Cl)cn5)n(C)c4c3)CCC2)cnc1/C=C/C(=O)O | 56
COc1nc(NC(=O)C2(NC(=O)c3ccc4c(C5CCCC5)c(-c5cnccn5)n(C)c4c3)CCC2)cnc1/C=C/C(=O)O | 49
COc1nc(NC(=O)C2(NC(=O)c3ccc4c(C5CCCC5)c(-c5cncnc5)n(C)c4c3)CCC2)cnc1/C=C/C(=O)O | 185
COc1nc(NC(=O)C2(NC(=O)c3ccc4c(C5CCCC5)c(-c5ncc(Br)cn5)n(C)c4c3)CCC2)cnc1/C=C/C(=O)O | 116
COc1nc(NC(=O)C(C)(C)NC(=O)c2ccc3c(C4CCCC4)c(-c4ccccn4)n(C)c3c2)ccc1/C=C/C(=O)O | 21
COc1nc(NC(=O)C(C)(C)NC(=O)c2ccc3c(C4CCCC4)c(-c4ccc(Cl)cn4)n(C)c3c2)ccc1/C=C/C(=O)O | 12
COc1nc(NC(=O)C(C)(C)NC(=O)c2ccc3c(C4CCCC4)c(-c4cnccn4)n(C)c3c2)ccc1/C=C/C(=O)O | 16
COc1nc(NC(=O)C(C)(C)NC(=O)c2ccc3c(C4CCCC4)c(-c4ncc(Br)cn4)n(C)c3c2)ccc1/C=C/C(=O)O | 7

Structure (SMILES) | EC50 [nM]
COc1nc(NC(=O)C(C)(C)NC(=O)c2ccc3c(c2)c(C)c(-c2ccc(F)cn2)n3C2CCCCC2)ccc1/C=C/C(=O)O | 3
COc1nc(NC(=O)C(C)(C)NC(=O)c2ccc3c(C4CCCC4)c(-c4ccccn4)n(C)c3c2)cnc1/C=C/C(=O)O | 50
COc1nc(NC(=O)C(C)(C)NC(=O)c2ccc3c(C4CCCC4)c(-c4ccc(F)cn4)n(C)c3c2)cnc1/C=C/C(=O)O | 26
COc1nc(NC(=O)C(C)(C)NC(=O)c2ccc3c(C4CCCC4)c(-c4ccc(Cl)cn4)n(C)c3c2)cnc1/C=C/C(=O)O | 44
COc1nc(NC(=O)C(C)(C)NC(=O)c2ccc3c(C4CCCC4)c(-c4cnccn4)n(C)c3c2)cnc1/C=C/C(=O)O | 55
COc1nc(NC(=O)C(C)(C)NC(=O)c2ccc3c(C4CCCC4)c(-c4cncnc4)n(C)c3c2)cnc1/C=C/C(=O)O | 330
COc1nc(NC(=O)C(C)(C)NC(=O)c2ccc3c(C4CCCC4)c(-c4ncc(Br)cn4)n(C)c3c2)cnc1/C=C/C(=O)O | 23
COc1nc(NC(=O)C(C)(C)NC(=O)c2ccc3c(c2)c(C)c(-c2ccc(F)cn2)n3C2CCCCC2)cnc1/C=C/C(=O)O | 27
COc1nc(NC(=O)C2(NC(=O)c3ccc4c(C5CCCC5)c(-c5ncc(Cl)cn5)n(C)c4c3)CCCC2)cnc1/C=C/C(=O)O | 29
COc1nc(NC(=O)C2(NC(=O)c3ccc4c(C5CCCC5)c(-c5ccccn5)n(C)c4c3)CCCC2)cnc1/C=C/C(=O)O | 31
COc1nc(NC(=O)C2(NC(=O)c3ccc4c(C5CCCC5)c(-c5ccc(F)cn5)n(C)c4c3)CCCC2)cnc1/C=C/C(=O)O | 30
COc1nc(NC(=O)C2(NC(=O)c3ccc4c(C5CCCC5)c(-c5ccc(Cl)cn5)n(C)c4c3)CCCC2)cnc1/C=C/C(=O)O | 40
COc1nc(NC(=O)C2(NC(=O)c3ccc4c(C5CCCC5)c(-c5cnccn5)n(C)c4c3)CCCC2)cnc1/C=C/C(=O)O | 390
COc1nc(NC(=O)C2(NC(=O)c3ccc4c(C5CCCC5)c(-c5cncnc5)n(C)c4c3)CCCC2)cnc1/C=C/C(=O)O | 575
COc1nc(NC(=O)C2(NC(=O)c3ccc4c(C5CCCC5)c(-c5ncc(Br)cn5)n(C)c4c3)CCCC2)cnc1/C=C/C(=O)O | 38
